# Like-named read-outs stand apart in the source and are kept apart here.
# Tests used:
# [1] = tested on: WA09 human embryonic stem (hES) cells
# Source text: (§1) These included 11 known teratogens and 11 known non-teratogens. The current model is based on the mean fold change (treatment versus its associated intra-experimental control) of 15 metabolites common among the secretome of hES cells treated with pharmaceutical agents and unknown chemical compounds.
# WA09 hESCs = test: Random forest prediction of teratogenicity from metabolomics of spent media of dosed hESCs; type: cell-based, human
# Procedure: WA09 hESCs, obtained from WiCell Research Institute (NIH National Stem Cell Bank, Madison, Wis.) were cultured in 6-well plates on Matrigel (BD Biosciences, San Jose, Calif.), in mTeSR1 medium (Stem Cell Technologies, Vancouver, BC) incubated at 37° C. under 5% CO2 in a Thermo Electron Form a Series II Water Jacket CO2 Incubator. hESCs were passaged every three or four days at a 1:3 or 1:6 seeding density for routine culture conditions. For dosing experiments, hESCs were passaged at a low density of 1:10 or 1:12 so that they would not require passaging during the […] dosing protocol. To passage hES cells, the StemPro® EZPassage™ disposable stem cell passaging tool (Invitrogen, Carlsbad, Calif.) was used to detach the cells from the wells. Detached cells were removed with a pipette and distributed to new Matrigel plates.
# These medium controls provided baseline mass spectral data.
# The 2.5 mL of spent media per well from Example 1 was added to 1.67 mL acetonitrile to make a 40% acetonitrile solution. The acetonitrile acts to “quench” the spent media sample, slowing or halting many metabolic processes and aiding in precipitation of cellular proteins. Samples were either stored at −80° C. for later analysis, or for immediate analysis, 250 μL of the quenched solution was mixed with 250 μL of water, to a final concentration of 20% acetonitrile, then added to a 3 kDa molecular weight cut-off filter spin column (Microcon YM-3 Centrifugal Filter, Millipore, Billerica, Mass.). Each sample was then centrifuged in an IEC CL31R Multispeed Centrifuge (Thermo Scientific, Waltham, Mass.) at 13,000×g at 4° C. for 200 minutes. Following centrifugation, the flow-through was saved then dried for several hours in a Savant High Capacity Speedvac Plus Concentrator. The concentrated sample was then dissolved in 50 μL of 0.1% formic acid prior to LC-MS analysis.
# 5 μl of each sample was injected.
# Following LC-MS, chromatograms were inspected for reproducibility. LC-MS runs with total ion counts that vary by more than 25% were repeated to ensure that samples could be accurately compared. These runs were then used to create mass features that correspond to molecules detected across the different LC-MS runs. Mass features were extracted from the LC-MS data using MassHunter Qualitative Analysis software (Agilent Technologies). The following criteria were used as general guidelines, however some flexibility and optimization was needed. m/z values within the range of 75-1500, with a charge of +1 or −1, and a centroid height greater than 1000 were used to generate “mass features.” The mass peaks that pass these criteria were used to fit isotope and adduct (Na^+, K^+, and NH4^+) patterns corresponding to individual molecules, and to establish the abundance of each mass feature. The abundance is calculated by MassHunter software as the sum of the isotopic and adduct peaks that correspond to a single molecular feature. After data deconvolution, mass features showing at least two ions (e.g. (M^+H)^+ and (M^+H)^++1 or (M^+H)^+ and (M^+Na)^+) and an abundance value greater than 50000 for positive-ion mode data and 10000 in negative-ion mode data were included in the data set used for binning of the mass features.
# Following feature selection by MassHunter, the data was further preprocessed by MassProfiler (Agilent) software which aligns mass features across multiple LC-MS data files. Mass features were generated for data from each drug treatment experiment (dosed and control) using the default alignment settings in MassProfiler with the requirement that a feature be present in at least 80% of the samples in one treatment. The mass feature datasets for each drug treatment experiment were further processed in a global manner using custom analysis scripts executed in the R statistical software environment. […]
# hESCs = test: Arginine / ADMA fold change ratio (integrated EICs) in dosed hESCs vs controls; conditions: for Arg fold change/ADMA fold change: EIC areas, controls vs. dosed
# Procedure: All tested chemicals were purchased from Sigma-Aldrich (St. Louis, Mo.). Cells were dosed with drugs at a concentration equivalent to their published serum circulating therapeutic dosages. Dosing was performed on hESCs in 6-well plates in triplicate, i.e. three wells per plate. The plates were dosed in triplicate, so there were a total of nine dosed wells. In parallel, there were nine “control” wells, in which hESCs were cultured with mTeSR1 containing no drug, and three wells containing Matrigel with mTeSR1 medium without hESCs that served as medium controls. Lastly, three wells of dosed medium controls were prepared, containing Matrigel, mTeSR1 and drug, but no hESCs (FIG. 1). These medium controls provided baseline mass spectral data. On the first day of dosage, the determined concentration of drug was dissolved in mTeSR1, and then 2.5 mL of this solution was added to each dosed well of hESCs. Each day, for four days, the medium was removed and new dosed medium was added. On the fourth day, the medium was removed and added to acetonitrile to make a 40% acetonitrile solution, as outlined in the Sample Preparation section below.
# Mass spectrometry was performed using an Agilent QTOF LC/MS system consisting of a G6520AA QTOF high resolution mass spectrometer capable of exact mass MS and MS/MS. In order to facilitate separation of small molecules with a wide range of polarity and to allow increased retention of hydrophilic species, Hydrophilic Interaction Liquid Chromatography (Alpert 1990) was employed. Each sample was run for 30 minutes with the gradient shown in Table 3 at a flow rate of 0.5 mL/min, using 0.1% formic acid in water (Solvent A) and 0.1% formic acid in acetonitrile (Solvent B). Electrospray ionization was employed using a dual ESI source, with an Agilent isocratic pump continuously delivering an internal mass reference solution into the source at approx. 0.01 mL/min. The mass range of the instrument was set to 100-1700 Da. A Phenomenex Luna HILIC column with dimensions 3×100 mm 3 μm particle size was used and maintained at 30° C. 5 μl of each sample was injected. Data acquisition was performed with Agilent MassHunter using high-resolution exact mass conditions.
# Valproate is known to cause neural tube defects (DiLiberti et al. 1984) while nitric oxide synthase activity is essential for neural tube closure (Nachmany et al. 2006).
# mES cells = conditions: Nieden et al. 2001; cited from earlier work
# [2] = tested on: WA09 human embryonic stem (hES) cells; test: PLS-DA prediction of teratogenicity from secretome of treated hES cells (Example 9); conditions: DevTox pharmaceutical
# Source text: as §1
# [3] = blinded drugs; cited from earlier work
# [4] = high dose (H = 10x circulating dose)
# [5] = low dose (L = 0.1x circulating dose)
Arg/ADMA Prediction (hESCs),SMILES,Prediction [1],Classification by the hSLC based assay (WA09 hESCs),Arg fold change/ADMA fold change (hESCs),Correct classification as a teratogen by the EST (mES cells),"% Non (PLS-DA class probability non-teratogen) [2, 4]","% Ter (PLS-DA class probability teratogen) [2, 4]","Confidence (difference between class probabilities) [2, 4]","Prediction [2, 4]","% Non (PLS-DA class probability non-teratogen) [2, 5]","% Ter (PLS-DA class probability teratogen) [2, 5]","Confidence (difference between class probabilities) [2, 5]","Prediction [2, 5]","Predicted teratogenicity (random forest statistical model) (WA09 hESCs; blind study, model trained on TS1, 142 mass features, circulating dose)",Actual teratogenicity [3]
,Nc1ccn([C@@H]2O[C@H](CO)[C@@H](O)[C@@H]2O)c(=O)n1 [CytosineArabinoside],Ter,,,,,,,,,,,,,
Ter,O=C1CCC(N2C(=O)c3ccccc3C2=O)C(=O)N1 (stereo not drawn) [Thalidomide],,teratogen,0.85,does not,0.3,0.7,0.4,Ter,0.65,0.35,0.3,Non,,
,Cc1ncc(C[n+]2csc(CCO)c2C)c(N)n1 [Thiamine],,,1.00,,0.78,0.22,0.56,Non,0.82,0.18,0.64,Non,Non,Non

# Source: patent US8703424B2, “Predicting human developmental toxicity of pharmaceuticals using human stem-like cells and metabolomics” (Stemina Biomarker Discovery, Inc., priority 2010, dated 2014)
